Literature values in paper PMC12030314, “Biomarker-Driven Pharmacokinetics and Efficacy of Polymyxin B in Critically Ill Patients with XDR-GN Pneumonia” (Pharmaceuticals, 2025).
Where two headings read alike, the source gives them in different places.

What was measured:
[1] = ref Lamer et al. 103, cited from earlier work
[2] = significant individual variation; cited from earlier work
Excerpt: Colistin (colistin methanesulfonate, CMS) and polymyxin B (PMB) are polymyxins that were approved for clinical use in the 1950s worldwide. Colistin is clinically administered as a prodrug, which requires conversion to the active form in vivo. […] The elimination of colistin is primarily dependent on renal function. Patients with renal impairment are prone to drug accumulation and increased nephrotoxicity risk. PMB is ... || Finally, we cannot rule out the possibility of the potential impacts of other combined drugs on PMB PK and the heterogeneity among the patients in our study. To date, little evidence supports the conclusion that the combined use of other drugs affects PMB PK. Studies have shown that urinary recovery from PMB is low (<5%). […] Further studies examining the nonrenal routes of PMB elimination are warranted, ...

Row | Compound | ELF/plasma value ([1]; patients with lung inflammation (ELF albumin ≥ 3.4 mg/mL)) | ELF/plasma value ([1]; patients without lung inflammation (ELF albumin <3.4 mg/mL)) | conversion efficiency of the prodrug to the active form in vivo [2]
1 | CN[C@H](CC(C)C)C(=O)N[C@H]1C(=O)N[C@@H](CC(N)=O)C(=O)N[C@H]2C(=O)N[C@H]3C(=O)N[C@H](C(=O)N[C@H](C(=O)O)c4cc(O)cc(O)c4-c4cc3ccc4O)[C@H](O)c3ccc(c(Cl)c3)Oc3cc2cc(c3O[C@@H]2O[C@H](CO)[C@@H](O)[C@H](O)[C@H]2O[C@H]2C[C@](C)(N)[C@H](O)[C@H](C)O2)Oc2ccc(cc2Cl)[C@H]1O [vancomycin] | 0.246 [0.192–0.426] | 0.14 [0.023–0.285] | 
2 | colistin methanesulfonate |  |  | 20–25%
